# Like-named read-outs stand apart in the source and are kept apart here.
# What was measured:
# Assay type in all cases: cell-based
# HT = assay: DLBCL cell line growth inhibition (Cell Titer Glo Luminescent Assay), HT; settings: read-out: PJ34 IC50
# Experimental: (§1) 6 DLBCL cell lines were treated by increasing doses of PARP inhibitor (PJ34 hydrochloride). DLBCL cell lines growth was quantified with a Cell Titer Glo Luminescent Assay (Promega, Madison, Wis., USA) and the 50% inhibitory concentration (IC50) was determined using GraphPad Prism software (http://www.graphpad.com/scientific-software/prism/) (FIG. 7A).
# OCILY7 = assay: DLBCL cell line growth inhibition (Cell Titer Glo Luminescent Assay), OCILY7; settings: OCILY7 cell line (high HRR score)
# Experimental: as §1
# DLBCL cell lines = DLBCL cell lines growth inhibition (Cell Titer Glo Luminescent Assay), panel of 6 cell lines
# Experimental: as §1
# OCILY1 = assay: DLBCL cell line growth inhibition (Cell Titer Glo Luminescent Assay), OCILY1; settings: read-out: PJ34 IC50
# Experimental: as §1
# OCILY3 = assay: DLBCL cell line growth inhibition (Cell Titer Glo Luminescent Assay), OCILY3; settings: read-out: PJ34 IC50
# Experimental: as §1
# U2932 = assay: DLBCL cell line growth inhibition (Cell Titer Glo Luminescent Assay), U2932; settings: read-out: PJ34 IC50
# Experimental: as §1
# DOHH2 = assay: DLBCL cell line growth inhibition (Cell Titer Glo Luminescent Assay), DOHH2; settings: DOHH cell line (high HRR score)
# Experimental: as §1
compound,measurement,setting,value
"CN(C)CC(=O)Nc1ccc2[nH]c(=O)c3ccccc3c2c1.Cl [PJ34, PJ34 hydrochloride]",IC50,HT,8.08 µM
same,IC50,OCILY7,14 µM
same,sensitivity to PARPi,"DLBCL cell lines; DLBCL cell lines with a high BER score, excluding the cell lines with a high HRR score",sensitive
same,IC50,"DLBCL cell lines; DLBCL cell lines with a lower HRR score, read-out: median IC50",7.41 µM
same,IC50,DLBCL cell lines; median over 6 DLBCL cell lines,7.82 µM
same,fold higher resistance to PARPi,DLBCL cell lines; two DLBCL cell lines with high HRR score compared to cell lines with a lower HRR score,2 fold
same,IC50,OCILY1,7.57 µM
same,IC50,OCILY3,7.26 µM
same,IC50,U2932,7.2 µM
same,IC50,DOHH2,15.2 µM
